Laboratory results published in PubChem BioAssay AID342 (DTP/NCI, 2004).
Where “and” joins values, the source holds several entries; their conditions need not be identical. Equal values may be shown once. Numbered stars: 1 amine (or outer) side, 2 acyl side, 3 side chain; on linkers, the order of the positions; unused ones are H or OH. Bridge positions count the residues as written; N and C are the ends. Square brackets hold non-standard residues; d marks the D form. Peptide text beside a SMILES is read from it. * marks the point of attachment. X1 = CC(C)C(C)C(C(=O)[*:2])N(C)[*:1]; Picolinoyl(3-OH) = O=C(c1ncccc1O)*; NMePhg = CN[CH](C(=O)O)c1ccccc1; Hyp = O=C(O)[CH]1C[CH](O)CN1; Sar = CNCC(=O)O

Tested on: Swiss mice, Sarcoma 180 sc, mean tumor weight T/C
Test: NCI In Vivo Anticancer Drug Screen. Data for tumor model Sarcoma 180 (subcutaneous) in Swiss mice
Conditions: endpoint: mean tumor weight, higher = larger tumour
Summary of the method: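 Tumor-bearing mice, transplantable tumor; readout survival or tumor size; result = T/C, treated vs vehicle control.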

[1] = dose: 125.0 mg/kg/injection, schedule: Q01DX007 (ip), vehicle: carboxymethylcellulose (CMC)
[2] = dose: 250.0 mg/kg/injection, schedule: Q01DX007 (ip), vehicle: carboxymethylcellulose (CMC)
[3] = dose: 500.0 mg/kg/injection, schedule: Q01DX007 (ip), vehicle: carboxymethylcellulose (CMC)
[4] = dose: 75.0 mg/kg/injection, schedule: Q01DX007 (ip), vehicle: carboxymethylcellulose (CMC)
[5] = dose: 25.0 mg/kg/injection, schedule: Q01DX007 (ip), vehicle: carboxymethylcellulose (CMC)
[6] = dose: 50.0 mg/kg/injection, schedule: Q01DX007 (ip), vehicle: carboxymethylcellulose (CMC)

For `CC(=O)[C@H]1CC[C@H]2[C@@H]3CCC4=CC(=O)[C@H](C)C[C@]4(C)[C@H]3C(=O)C[C@]12C`, the T/C (dose: 50.0 mg/kg/injection, schedule: Q#A X014 (oral), vehicle: steriod suspending solution) was 97 % of control, the T/C (dose: 125.0 mg/kg/injection, schedule: Q#A X014 (oral), vehicle: steriod suspending solution) was 68 % of control and the T/C (dose: 250.0 mg/kg/injection, schedule: Q#A X014 (oral), vehicle: steriod suspending solution) was 63 % of control.

With `c1ccc2nc3c(nc2c1)[nH]c1ccccc13` the T/C (dose: 62.5 mg/kg/injection, schedule: Q01DX007 (ip), vehicle: carboxymethylcellulose (CMC)) was 76 % of control, the T/C [1] was 67 % of control and the T/C [2] was 114 % of control.

In the case of `CC1NC(=O)NC1CCCCCC(=O)O` (configuration not stated), the T/C [1] is reported as 103 % of control, the T/C [2] is reported as 73 % of control and the T/C [3] is reported as 122 % of control. For the same compound, the T/C (dose: 1000.0 mg/kg/injection, schedule: Q01DX007 (ip), vehicle: carboxymethylcellulose (CMC)) was 105 % of control.

In the case of `S=C(N=Nc1ccccc1)NNc1ccccc1`, the T/C (dose: 37.5 mg/kg/injection, schedule: Q01DX007 (ip), vehicle: carboxymethylcellulose (CMC)) is reported as 110 % of control and the T/C [4] is reported as 47 % of control.

`CC(=O)OCC(=O)[C@@]1(O)CC[C@H]2[C@@H]3C[C@H](C)C4=CC(=O)C=C[C@]4(C)[C@@]3(F)[C@@H](O)C[C@@]21C` was tested, and the T/C (dose: 125.0 mg/kg/injection, schedule: Q01DX007 (sc), vehicle: steriod suspending solution) was 41 % of control and the T/C (dose: 187.0 mg/kg/injection, schedule: Q01DX007 (sc), vehicle: steriod suspending solution) was 30 % of control.

For `CC1(C)CCC2(C(=O)O)CCC3=C(C(CCl)CC4C3(C)CCC3C4(C)CC(O)C(O)C3(C)C(=O)O)C2C1` (configuration not stated), the T/C [5] was 108 % of control, the T/C [6] was 80 % of control and the T/C [4] was 157 % of control. For the same compound, the T/C [1] was 70 % of control.

`CC(=O)OCC(=O)[C@@]1(O)CC[C@H]2[C@@H]3C[C@H](C)C4=CC(=O)CC[C@]4(C)[C@H]3[C@@H](O)C[C@@]21C` was tested, and the T/C (dose: 3.0 mg/kg/injection, schedule: Q#A X014 (sc), vehicle: steriod suspending solution) was 64 % of control, the T/C (dose: 6.25 mg/kg/injection, schedule: Q#A X014 (sc), vehicle: steriod suspending solution) was 77 % of control and the T/C (dose: 12.5 mg/kg/injection, schedule: Q01DX007 (sc), vehicle: steriod suspending solution) was 44 % of control. The T/C (dose: 12.5 mg/kg/injection, schedule: Q#A X014 (sc), vehicle: steriod suspending solution) was 48 % of control, the T/C (dose: 25.0 mg/kg/injection, schedule: Q01DX007 (sc), vehicle: steriod suspending solution) was 37 % of control and the T/C (dose: 25.0 mg/kg/injection, schedule: Q#A X014 (sc), vehicle: steriod suspending solution) was 43 % of control. For the same compound, the T/C (dose: 50.0 mg/kg/injection, schedule: Q01DX007 (sc), vehicle: steriod suspending solution) was 32 % of control, the T/C (dose: 50.0 mg/kg/injection, schedule: Q#A X014 (sc), vehicle: steriod suspending solution) was 28 % of control and the T/C (dose: 100.0 mg/kg/injection, schedule: Q01DX007 (sc), vehicle: steriod suspending solution) was 25 % of control. For the same compound, the T/C (dose: 200.0 mg/kg/injection, schedule: Q01DX007 (sc), vehicle: steriod suspending solution) was 15 % of control.

In the case of `CCCCCCCCCCCC1=C(O)C(=O)C(CC2=C(O)C(=O)C(CCCCCCCCCCC)=C(O)C2=O)=C(O)C1=O`, the T/C (dose: 7.5 mg/kg/injection, schedule: Q01DX007 (ip), vehicle: carboxymethylcellulose (CMC)) is reported as 110 % of control, the T/C (dose: 15.0 mg/kg/injection, schedule: Q01DX007 (ip), vehicle: carboxymethylcellulose (CMC)) is reported as 85 % of control and the T/C (dose: 30.0 mg/kg/injection, schedule: Q01DX007 (ip), vehicle: carboxymethylcellulose (CMC)) is reported as 50 % of control. For the same compound, the T/C (dose: 60.0 mg/kg/injection, schedule: Q01DX007 (ip), vehicle: carboxymethylcellulose (CMC)) was 123 % of control.

With `CCN(CC)P(=S)(N1CC1)N1CC1` the T/C (dose: 25.0 mg/kg/injection, schedule: Q01DX007 (ip), vehicle: other) was 3 % of control, the T/C (dose: 50.0 mg/kg/injection, schedule: Q01DX007 (ip), vehicle: other) was 31 % of control and the T/C (dose: 100.0 mg/kg/injection, schedule: Q01DX007 (ip), vehicle: other) was 1 % of control. For the same compound, the T/C (dose: 220.0 mg/kg/injection, schedule: Q01DX007 (ip), vehicle: saline) was 25 % of control.

For `CC(C)CC1NC(=O)C(NC(=O)c2ncccc2O)C(C)OC(=O)C(c2ccccc2)N(C)C(=O)C(C)NC(=O)C(C(C)C(C)C)N(C)C(=O)CN(C)C(=O)C2CC(O)CN2C1=O` (configuration not stated) ({Picolinoyl(3-OH)}-TL[Hyp][Sar][X1]A[NMePhg]; ester 1-C; configuration not given here), the T/C (dose: 6.25 mg/kg/injection, schedule: Q01DX007 (ip), vehicle: carboxymethylcellulose (CMC)) was 85 % of control, the T/C [5] was 106 % of control and the T/C [6] was 114 % of control. The T/C [4] was 67 % of control, the T/C (dose: 100.0 mg/kg/injection, schedule: Q01DX007 (ip), vehicle: carboxymethylcellulose (CMC)) was 100 % of control and the T/C (dose: 200.0 mg/kg/injection, schedule: Q01DX007 (ip), vehicle: carboxymethylcellulose (CMC)) was 98 % of control.

In the case of `O=C(Nc1ccc2c(c1)Cc1cccc(NC(=O)C(Cl)Cl)c1-2)C(Cl)Cl`, the T/C (dose: 222.0 mg/kg/injection, schedule: Q01DX007 (ip), vehicle: carboxymethylcellulose (CMC)) is reported as 76 % of control, the T/C (dose: 222.0 mg/kg/injection, schedule: Q01DX007 (ip), vehicle: methylcellulose (MC)) is reported as 46 % of control and the T/C (dose: 222.0 mg/kg/injection, schedule: Q01DX007 (ip), vehicle: other) is reported as 52 % of control. For the same compound, the T/C (dose: 333.0 mg/kg/injection, schedule: Q01DX007 (ip), vehicle: carboxymethylcellulose (CMC)) was 70 % of control and 90 % of control, the T/C (dose: 333.0 mg/kg/injection, schedule: Q01DX007 (ip), vehicle: methylcellulose (MC)) was 69 % of control and the T/C (dose: 333.0 mg/kg/injection, schedule: Q01DX007 (ip), vehicle: other) was 81 % of control. The T/C [3] was 48 % of control and 58 % of control, the T/C (dose: 500.0 mg/kg/injection, schedule: Q01DX007 (ip), vehicle: methylcellulose (MC)) was 87 % of control and the T/C (dose: 500.0 mg/kg/injection, schedule: Q01DX007 (ip), vehicle: other) was 122 % of control. For the same compound, the T/C (dose: 750.0 mg/kg/injection, schedule: Q01DX007 (ip), vehicle: carboxymethylcellulose (CMC)) was 48 % of control, the T/C (dose: 750.0 mg/kg/injection, schedule: Q01DX007 (ip), vehicle: methylcellulose (MC)) was 46 % of control and the T/C (dose: 750.0 mg/kg/injection, schedule: Q01DX007 (ip), vehicle: other) was 89 % of control.

For `O=C1CN(/N=C\c2ccc([N+](=O)[O-])o2)C(=O)N1`, the T/C (dose: 6.25 mg/kg/injection, schedule: Q#A X014 (ip), vehicle: carboxymethylcellulose (CMC)) was 91 % of control, the T/C (dose: 12.5 mg/kg/injection, schedule: Q#A X014 (ip), vehicle: carboxymethylcellulose (CMC)) was 94 % of control and the T/C (dose: 15.5 mg/kg/injection, schedule: Q01DX007 (ip), vehicle: carboxymethylcellulose (CMC)) was 106 % of control. The T/C (dose: 21.0 mg/kg/injection, schedule: Q01DX007 (ip), vehicle: carboxymethylcellulose (CMC)) was 92 % of control, the T/C (dose: 25.0 mg/kg/injection, schedule: Q#A X014 (ip), vehicle: carboxymethylcellulose (CMC)) was 97 % of control and the T/C (dose: 42.0 mg/kg/injection, schedule: Q01DX007 (ip), vehicle: carboxymethylcellulose (CMC)) was 88 % of control. The T/C (dose: 50.0 mg/kg/injection, schedule: Q#A X014 (ip), vehicle: carboxymethylcellulose (CMC)) was 27 % of control and the T/C (dose: 84.0 mg/kg/injection, schedule: Q01DX007 (ip), vehicle: carboxymethylcellulose (CMC)) was 103 % of control.
